SMILES strings stand for the structures.

The target of this test is SARS2 coronavirus 3CL protease (Severe acute respiratory syndrome coronavirus 2, UniProt P0DTD1). Briefly: biochemical. To be noted: 5 nM enzyme, 30 min pre-incubation with compound, 15 μM peptide substrate, 4 h at room temperature; read-out: FRET Potency (nM); IC50 values in the SARS2 3CLPro FRET assay.
For `CNC(=O)C(=O)[C@H](C[C@@H]1C[C@@H](C)NC1=O)NC(=O)c1cc(Cl)cc(F)c1NC(=O)c1ccnc(C(F)(F)F)c1` [Example 224, N-[4-chloro-2-fluoro-6-[[(1S)-3-(methylamino)-1-[[(3S,5R)-5-methyl-2-oxo-pyrrolidin-3-yl]methyl]-2,3-dioxo-propyl]carbamoyl]phenyl]-2-(trifluoromethyl)pyridine-4-carboxamide], the IC50 came to 7.2 nM.

For `C[C@@H]1C[C@@H](C[C@H](NC(=O)c2cc(Cl)ccc2NC(=O)c2ccc(C(F)(F)F)nc2)C(=O)C(=O)NC2CC2)C(=O)N1` [Example 225, N-[4-chloro-2-[[(1S)-3-(cyclopropylamino)-1-[[(3S,5R)-5-methyl-2-oxo-pyrrolidin-3-yl]methyl]-2,3-dioxo-propyl]carbamoyl]phenyl]-6-(trifluoromethyl)pyridine-3-carboxamide], the IC50 is 6.8 nM. For the compound `C[C@@H]1C[C@@H](C[C@H](NC(=O)c2cc(Cl)ccc2NC(=O)c2cnc(C(F)(F)F)cn2)C(=O)C(=O)NC2CC2)C(=O)N1` [Example 226, N-[4-chloro-2-[[(1S)-3-(cyclopropylamino)-1-[[(3S,5R)-5-methyl-2-oxo-pyrrolidin-3-yl]methyl]-2,3-dioxo-propyl]carbamoyl]phenyl]-5-(trifluoromethyl)pyrazine-2-carboxamide], the IC50 amounted to 19.1 nM. As for `CNC(=O)C(=O)[C@H](C[C@@H]1C[C@@H](C)NC1=O)NC(=O)c1cc(Cl)ccc1NC(=O)C(C)c1ccnc(C(F)(F)F)c1` (stereo partly drawn) [Example 227, 5-chloro-N-[(1S)-3-(methylamino)-1-[[(3S,5R)-5-methyl-2-oxo-pyrrolidin-3-yl]methyl]-2,3-dioxo-propyl]-2-[2-[2-(trifluoromethyl)-4-pyridyl]propanoylamino] benzamide], the IC50 was 7.4 nM. With `CNC(=O)C(=O)[C@H](C[C@@H]1C[C@@H](C)NC1=O)NC(=O)c1cc(Cl)ccc1NC(=O)C(C)c1ccnc(C(F)(F)F)c1` (stereo partly drawn) [Example 228, 5-chloro-N-[(1S)-3-(methylamino)-1-[[(3S,5R)-5-methyl-2-oxo-pyrrolidin-3-yl]methyl]-2,3-dioxo-propyl]-2-[2-[2-(trifluoromethyl)-4-pyridyl]propanoylamino] benzamide] the figure was 6.1 nM; with `CNC(=O)C(=O)[C@H](C[C@@H]1C[C@@H](C)NC1=O)NC(=O)c1cc(Cl)cc(Cl)c1NC(=O)c1ccnc(C(F)(F)F)c1` [Example 231, N-[2,4-dichloro-6-[[(1S)-3-(methylamino)-1-[[(3S,5R)-5-methyl-2-oxo-pyrrolidin-3-yl]methyl]-2,3-dioxo-propyl]carbamoyl]phenyl]-2-(trifluoromethyl)pyridine-4-carboxamide], 5.6 nM. The same measure for `C[C@@H]1C[C@@H](C[C@H](NC(=O)c2cc(C(F)F)ccc2NC(=O)c2ccnc(C(F)(F)F)c2)C(=O)C(=O)NC2CC2)C(=O)N1` [Example 232, N-[2-[[(1S)-3-(cyclopropylamino)-1-[[(3S,5R)-5-methyl-2-oxo-pyrrolidin-3-yl]methyl]-2,3-dioxo-propyl]carbamoyl]-4-(difluoromethyl)phenyl]-2-(trifluoromethyl)pyridine-4-carboxamide]: 10.4 nM. The same measure for `C[C@@H]1C[C@@H](C[C@H](NC(=O)c2c(NC(=O)c3ccnc(C(F)(F)F)c3)cc(F)c(F)c2F)C(=O)C(=O)NC2CC2)C(=O)N1` [Example 233, N-[2-[[(1S)-3-(cyclopropylamino)-1-[[(3S,5R)-5-methyl-2-oxo-pyrrolidin-3-yl]methyl]-2,3-dioxo-propyl]carbamoyl]-3,4,5-trifluoro-phenyl]-2-(trifluoromethyl)pyridine-4-carboxamide]: 44 nM; for `O=C(NC1CC1)C(=O)[C@H](C[C@@H]1CCCNC1=O)NC(=O)c1cc(Cl)ccc1NC(=O)c1ccnc(C(F)(F)F)c1` [Example 234, N-[4-chloro-2-[[(1S)-3-(cyclopropylamino)-2,3-dioxo-1-[[(3S)-2-oxo-3-piperidyl]methyl]propyl]carbamoyl]phenyl]-2-(trifluoromethyl)pyridine-4-carboxamide]: 17.1 nM. As for `O=C(CCC(F)(F)F)Nc1ccc(Cl)cc1C(=O)N[C@@H](C[C@@H]1CCCNC1=O)C(=O)C(=O)NC1CC1` [Example 235, 5-chloro-N-[(1S)-3-(cyclopropylamino)-2,3-dioxo-1-[[(3S)-2-oxo-3-piperidyl]methyl]propyl]-2-(4,4,4-trifluorobutanoylamino) benzamide], the IC50 came to 15.1 nM.

These data come from patent US20240228535A1 (priority 2022, published 2024).
